One experiment deals with T1, TRPC5-V579I-SYFP2 (Homo sapiens, UniProt Q9UL62, V579I).
T1 construct: expressed in transfected cells; host or cells: HEK 293 (ATCC CRL 1573), transiently transfected (jetPRIME)
T1 sequence (Q9UL62 1-973 V579I): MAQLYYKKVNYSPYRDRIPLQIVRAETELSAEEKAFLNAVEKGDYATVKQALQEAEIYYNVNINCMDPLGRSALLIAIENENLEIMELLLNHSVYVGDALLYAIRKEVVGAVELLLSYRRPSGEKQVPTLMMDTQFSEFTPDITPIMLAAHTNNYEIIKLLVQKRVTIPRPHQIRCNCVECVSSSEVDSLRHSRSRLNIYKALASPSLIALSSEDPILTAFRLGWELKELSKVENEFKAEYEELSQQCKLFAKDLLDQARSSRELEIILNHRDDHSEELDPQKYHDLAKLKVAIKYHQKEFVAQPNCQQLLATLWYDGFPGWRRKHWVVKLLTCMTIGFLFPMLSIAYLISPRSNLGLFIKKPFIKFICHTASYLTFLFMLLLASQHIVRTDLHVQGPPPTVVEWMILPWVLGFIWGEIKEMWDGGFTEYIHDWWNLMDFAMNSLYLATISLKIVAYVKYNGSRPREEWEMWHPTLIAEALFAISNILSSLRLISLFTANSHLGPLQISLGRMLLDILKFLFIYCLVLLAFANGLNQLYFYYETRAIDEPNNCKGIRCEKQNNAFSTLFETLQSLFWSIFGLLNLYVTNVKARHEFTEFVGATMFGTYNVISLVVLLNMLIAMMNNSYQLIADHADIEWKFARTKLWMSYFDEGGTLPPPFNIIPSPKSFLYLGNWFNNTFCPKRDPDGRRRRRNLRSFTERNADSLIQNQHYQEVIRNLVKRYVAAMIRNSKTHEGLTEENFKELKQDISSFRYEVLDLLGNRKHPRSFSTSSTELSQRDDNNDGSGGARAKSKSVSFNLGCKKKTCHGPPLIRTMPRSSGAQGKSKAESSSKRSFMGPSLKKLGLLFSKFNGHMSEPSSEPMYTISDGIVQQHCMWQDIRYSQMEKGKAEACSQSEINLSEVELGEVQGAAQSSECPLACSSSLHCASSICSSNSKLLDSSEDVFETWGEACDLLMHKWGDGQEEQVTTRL
Nature of the experiment: Fura-2 [Ca2+]i recordings, HEK 293 transiently expressing TRPC5-V579I-SYFP2. The class given is cell-based. The following applies: 10-1000 nM; compound plate illuminated at 380 nm; EA 100 nM as maximum. The text has this:
(§1) Müller, Niemeyer, et al., Schaefer & Thorn-Seshold 2025: Ideal Efficacy Photoswitching of TRPC4/5 in Tissue […]
(§2) 1.4.3 Note on TRPC4 / TRPC5 Sequence Alignment
(§3) The key contact residues of interest in the ligand binding site are highly conserved between TRPC4 and TRPC5. The relevant sequences in the site are: […]
(§4) 1.4.4 Differences and selectivity between TRPC5 and TRPC4?
(§5) AM237 activates TRPC5 but inhibits EA mediated activation of TRPC4; Pico145 inhibits both TRPC4 and TRPC5. Thus, somewhat naively, it could be argued that it is the para substituent here which affects both the efficacy mode and the selectivity for TRPC4 and/or TRPC5.
(§6) Intriguingly, Z-AzPico activates TRPC4 and TRPC5 with low nanomolar potency whereas Z-AzHC only activates TRPC5 but not TRPC4. Therefore, the meta substituent is now responsible for the selectivity in this case. The cryo-EM structures of Pico145 and HC-070 in complex with TRPC5 indicated the same binding site but the southern phenyl ring bearing the OCF3/Cl group is flipped and pointing in opposite directions.
(§7) Z isomers, i.e. Z-buried vs. E-projected. Additionally, both E-AzPico and E-AzHC inhibit EA […]
(§8) Intracellular calcium ([Ca2+]i) was measured using the ratiometric Ca2+ dye Fura-2. […]

Another experiment addresses T2, TRPC4β-I575V-SYFP2 (Homo sapiens, UniProt Q9UBN4, I575V).
T2 construct: expressed in transfected cells; host or cells: HEK 293 (ATCC CRL 1573), transiently transfected (jetPRIME)
Nature of the experiment: Fura-2 [Ca2+]i recordings, HEK 293 transiently expressing TRPC4β-I575V-SYFP2. The format is cell-based. The note with it: AzHC 10-1000 nM, AM237 100 nM.
Description: as §1, §2, §3, §4, §5, §6, §7, §8

T2 sequence (Q9UBN4 other isoform, or with tags, fused parts or gaps I575V): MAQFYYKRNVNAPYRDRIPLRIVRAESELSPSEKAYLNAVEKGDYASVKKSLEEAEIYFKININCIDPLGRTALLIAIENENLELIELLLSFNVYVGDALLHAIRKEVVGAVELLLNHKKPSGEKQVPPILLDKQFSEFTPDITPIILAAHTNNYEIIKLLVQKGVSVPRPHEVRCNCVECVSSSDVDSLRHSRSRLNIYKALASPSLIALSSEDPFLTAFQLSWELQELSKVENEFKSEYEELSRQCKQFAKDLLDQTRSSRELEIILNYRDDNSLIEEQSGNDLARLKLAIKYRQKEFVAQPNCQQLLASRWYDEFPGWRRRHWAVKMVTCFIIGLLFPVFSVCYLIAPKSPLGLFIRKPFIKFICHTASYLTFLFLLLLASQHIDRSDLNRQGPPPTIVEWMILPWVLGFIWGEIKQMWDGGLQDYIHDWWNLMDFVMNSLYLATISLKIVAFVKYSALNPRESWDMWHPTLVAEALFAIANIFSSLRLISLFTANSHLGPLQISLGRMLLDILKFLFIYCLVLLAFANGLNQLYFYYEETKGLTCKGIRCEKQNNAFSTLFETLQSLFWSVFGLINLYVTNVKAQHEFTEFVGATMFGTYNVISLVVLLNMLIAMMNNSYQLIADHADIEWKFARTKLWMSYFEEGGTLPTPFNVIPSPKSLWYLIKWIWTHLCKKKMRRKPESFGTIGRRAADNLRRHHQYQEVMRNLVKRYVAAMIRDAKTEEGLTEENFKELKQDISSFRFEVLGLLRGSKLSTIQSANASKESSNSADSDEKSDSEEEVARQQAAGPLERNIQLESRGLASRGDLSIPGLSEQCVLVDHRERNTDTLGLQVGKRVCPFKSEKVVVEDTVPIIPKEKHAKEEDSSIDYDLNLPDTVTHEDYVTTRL

In the case of `Cn1c(=O)n(CCCO)c(=O)c2c1nc(Oc1ccc(Cl)c(OC(F)(F)F)c1)n2Cc1ccc(Cl)cc1` [AM237, reference compound], the “Effect on [Ca2+]i, TRPC5V579I” value at TRPC5-V579I-SYFP2 is given as “partial agonists”. For the same molecule, at TRPC4β-I575V-SYFP2, the “Effect on [Ca2+]i, TRPC4I575V” value is listed as “do not activate”.
Take `Cn1c(=O)n(CCCO)c(=O)c2c1nc(Oc1ccc(/N=N\c3ccccc3)c(Cl)c1)n2Cc1ccc(Cl)cc1` [Z*-AzHC]: the “Effect on [Ca2+]i, TRPC5V579I” value at TRPC5-V579I-SYFP2 was “partial agonists”. On TRPC4β-I575V-SYFP2, the “Effect on [Ca2+]i, TRPC4I575V” value is “do not activate”.

Source of the values: publication PMC12858405, “Ideal efficacy photoswitching for chromocontrol of TRPC4/5 channel functions in live tissues” (Nature Chemical Biology, 2026).
